Reference: ChEMBL document CHEMBL1201862, “PubChem BioAssay data set” (2004)
Several values for one entry are separate records, joined by “and”; a condition that tells them apart may be missing. Equal entries are not always repeated.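 Cultured in 96-well plates, cells were exposed to test compound for 48 hours across five concentrations. GI50 is the concentration that inhibits growth by half.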 Activity calls are given as the source filed them. Rule as the data show it: active = GI50 up to about 1.1 µM and inactive = higher.

Assays:
Assay in all cases: NCI-60 cell line screen, 48 h
MOLT-4 = tested on: MOLT-4
SNB-19 = tested on: SNB-19
OVCAR-4 = tested on: OVCAR-4
OVCAR-3 = tested on: OVCAR-3
SW-620 = tested on: SW-620
HCC 2998 = tested on: HCC 2998
IGROV-1 = tested on: IGROV-1
OVCAR-8 = tested on: OVCAR-8
SF-539 = tested on: SF-539
EKVX = tested on: EKVX
UACC-62 = tested on: UACC-62
NCI-H23 = tested on: NCI-H23
U-251 = tested on: U-251
786-0 = tested on: 786-0
NCI-H460 = tested on: NCI-H460
A549 = tested on: A549
HOP-92 = tested on: HOP-92
SNB-75 = tested on: SNB-75

Measured: GI50

O=C1CC(c2ccc(Cl)cc2)=Nc2ccccc2N1
inactive: MOLT-4 > 100 µM | SNB-19 51.6 µM | OVCAR-4 28.6 µM | OVCAR-3 84.9 µM | SW-620 18.8 µM | HCC 2998 97.1 µM | IGROV-1 > 100 µM | OVCAR-8 25.9 µM | SF-539 96.6 µM | EKVX 47.3 µM | UACC-62 > 100 µM | NCI-H23 65.8 µM | U-251 20.7 µM | 786-0 36.1 µM | NCI-H460 34.7 µM | A549 > 100 µM | HOP-92 26.4 µM | SNB-75 20.6 µM

Cc1cccc(C)c1NC(=O)CCC(=O)NNc1nnc(C)n1N
inactive: MOLT-4 > 100 µM | SNB-19 > 100 µM | OVCAR-4 > 100 µM | OVCAR-3 > 100 µM | SW-620 > 100 µM | HCC 2998 > 100 µM | IGROV-1 > 100 µM | OVCAR-8 > 100 µM | SF-539 > 100 µM | EKVX > 100 µM | UACC-62 > 100 µM | NCI-H23 > 100 µM | U-251 > 100 µM | 786-0 > 100 µM | NCI-H460 > 100 µM | A549 > 100 µM | HOP-92 > 100 µM | SNB-75 > 100 µM

COC(=O)C1C(=O)N(CCc2c[nH]c3ccccc23)C[C@@H]2CCC(=O)C[C@H]12 (stereo not given in full)
inactive: MOLT-4 > 100 µM | SNB-19 > 100 µM | OVCAR-4 > 100 µM | OVCAR-3 > 100 µM | SW-620 > 100 µM | HCC 2998 > 100 µM | IGROV-1 > 100 µM | OVCAR-8 > 100 µM | SF-539 > 100 µM | EKVX > 100 µM | UACC-62 > 100 µM | NCI-H23 > 100 µM | U-251 > 100 µM | 786-0 > 100 µM | NCI-H460 > 100 µM | A549 > 100 µM | HOP-92 > 100 µM | SNB-75 > 100 µM

C/C(=N\Nc1ccc([N+](=O)[O-])cc1)C(=O)N(C)Nc1ccccc1
inactive: MOLT-4 41 µM | SNB-19 > 100 µM | OVCAR-4 47.2 µM | OVCAR-3 43.9 µM | SW-620 > 100 µM | HCC 2998 33.8 µM | IGROV-1 58.9 µM | OVCAR-8 51.4 µM | SF-539 76.4 µM | EKVX 34.5 µM | UACC-62 45.2 µM | NCI-H23 58.5 µM | U-251 62.1 µM | 786-0 > 100 µM | NCI-H460 47.1 µM | A549 40.5 µM | HOP-92 53.7 µM | SNB-75 27.6 µM

NCCCNCCSSC/C=C\CSSCCNCCCN
inactive: MOLT-4 20.4 µM and 12.3 µM | SNB-19 > 100 µM | OVCAR-4 51.8 µM and 58.2 µM | OVCAR-3 40.5 µM and 42 µM | SW-620 44.4 µM and 31.1 µM | HCC 2998 90.6 µM | IGROV-1 > 100 µM | OVCAR-8 > 100 µM | SF-539 72.4 µM and 89.3 µM | EKVX > 100 µM | UACC-62 36.3 µM and 52.8 µM | NCI-H23 > 100 µM | U-251 > 100 µM and 53.8 µM | 786-0 > 100 µM | NCI-H460 > 100 µM | HOP-92 18.9 µM and 23 µM | SNB-75 39.5 µM and 37.3 µM

O=C(Nc1ccc(Cl)c(Cl)c1)C1C(=O)N(c2ccc(Cl)c(Cl)c2)C(=O)/C1=N\O (stereo not given)
inactive: MOLT-4 > 100 µM | SNB-19 > 100 µM | OVCAR-4 70.1 µM | OVCAR-3 > 100 µM | SW-620 49 µM | HCC 2998 > 100 µM | IGROV-1 > 100 µM | OVCAR-8 > 100 µM | SF-539 > 100 µM | EKVX 39.6 µM | UACC-62 > 100 µM | NCI-H23 > 100 µM | U-251 66.8 µM | 786-0 44.5 µM | A549 36.6 µM | HOP-92 > 100 µM | SNB-75 > 100 µM

NC(=S)N/N=C1\CCCC\C1=C/c1ccccc1
inactive: MOLT-4 19.6 µM | SNB-19 > 100 µM | OVCAR-4 27 µM | OVCAR-3 39.1 µM | SW-620 72.6 µM | HCC 2998 > 100 µM | IGROV-1 25.2 µM | OVCAR-8 > 100 µM | SF-539 93.8 µM | EKVX 99.8 µM | UACC-62 57.7 µM | NCI-H23 > 100 µM | U-251 40.5 µM | 786-0 63.8 µM | NCI-H460 > 100 µM | A549 > 100 µM | HOP-92 47.2 µM | SNB-75 30.5 µM

CC1CC2C3CC(F)C4=CC(=O)C=CC4(C)C3(F)C(O)CC2(C)C1(O)C(=O)CO (stereo not given)
inactive: MOLT-4 > 100 µM | SNB-19 > 100 µM | OVCAR-4 > 100 µM | OVCAR-3 > 100 µM | SW-620 > 100 µM | HCC 2998 > 100 µM | IGROV-1 > 100 µM | SF-539 > 100 µM | EKVX > 100 µM | UACC-62 > 100 µM | NCI-H23 > 100 µM | U-251 > 100 µM | 786-0 > 100 µM | NCI-H460 > 100 µM | A549 > 100 µM | HOP-92 > 100 µM | SNB-75 > 100 µM

COc1ccc(/C=c2/sc3n(c2=O)NC2(CCCCC2)NN=3)cc1
inactive: MOLT-4 > 100 µM | SNB-19 > 100 µM | OVCAR-4 > 100 µM | OVCAR-3 > 100 µM | SW-620 > 100 µM | HCC 2998 > 100 µM | IGROV-1 > 100 µM | OVCAR-8 > 100 µM | SF-539 > 100 µM | EKVX > 100 µM | UACC-62 > 100 µM | NCI-H23 > 100 µM | U-251 > 10 µM | 786-0 > 100 µM | NCI-H460 > 100 µM | A549 > 100 µM | HOP-92 > 100 µM | SNB-75 92.7 µM

CC12CCC[C@@](C)(C(=O)OC3OC(CO)C(O)C(O)C3O)[C@H]1CCC13CC4CC(OC4(CO)[C@H]1O)[C@@H]23 (stereo not given in full)
inactive: MOLT-4 > 100 µM | SNB-19 > 100 µM | OVCAR-4 > 100 µM | OVCAR-3 > 100 µM | SW-620 14.5 µM | HCC 2998 > 100 µM | IGROV-1 > 100 µM | OVCAR-8 > 100 µM | SF-539 > 100 µM | EKVX > 100 µM | UACC-62 > 100 µM | NCI-H23 > 100 µM | U-251 > 100 µM | 786-0 > 100 µM | NCI-H460 > 100 µM | A549 > 100 µM | HOP-92 > 100 µM | SNB-75 > 100 µM

O=S(=O)(O)SC/C=C\CSS(=O)(=O)O
inactive: MOLT-4 > 100 µM | SNB-19 42.4 µM | OVCAR-4 > 100 µM | OVCAR-3 > 100 µM | SW-620 > 100 µM | HCC 2998 > 100 µM | IGROV-1 > 100 µM | OVCAR-8 > 100 µM | SF-539 66.2 µM | EKVX > 100 µM | UACC-62 > 100 µM | NCI-H23 > 100 µM | U-251 31.5 µM | 786-0 > 100 µM | NCI-H460 42.9 µM | A549 44.4 µM | HOP-92 > 100 µM | SNB-75 60.4 µM
